Data set [1] in a line: logD by shake flask method (octanol / PBS pH 7.4, HPLC). Format: physicochemical. As to conditions: octanol / PBS pH 7.4, shake flask. Summed up: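 LogD obtained by HPLC measurement of how the compound distributes between PBS (pH 7.4) and octanol in a shake-flask experiment.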
Data set [2] concerns the target T1, recombinant human transglutaminase 2 (Homo sapiens, UniProt P21980).
T1 construct: purchased Zedira T022
T1 sequence (P21980 1-687): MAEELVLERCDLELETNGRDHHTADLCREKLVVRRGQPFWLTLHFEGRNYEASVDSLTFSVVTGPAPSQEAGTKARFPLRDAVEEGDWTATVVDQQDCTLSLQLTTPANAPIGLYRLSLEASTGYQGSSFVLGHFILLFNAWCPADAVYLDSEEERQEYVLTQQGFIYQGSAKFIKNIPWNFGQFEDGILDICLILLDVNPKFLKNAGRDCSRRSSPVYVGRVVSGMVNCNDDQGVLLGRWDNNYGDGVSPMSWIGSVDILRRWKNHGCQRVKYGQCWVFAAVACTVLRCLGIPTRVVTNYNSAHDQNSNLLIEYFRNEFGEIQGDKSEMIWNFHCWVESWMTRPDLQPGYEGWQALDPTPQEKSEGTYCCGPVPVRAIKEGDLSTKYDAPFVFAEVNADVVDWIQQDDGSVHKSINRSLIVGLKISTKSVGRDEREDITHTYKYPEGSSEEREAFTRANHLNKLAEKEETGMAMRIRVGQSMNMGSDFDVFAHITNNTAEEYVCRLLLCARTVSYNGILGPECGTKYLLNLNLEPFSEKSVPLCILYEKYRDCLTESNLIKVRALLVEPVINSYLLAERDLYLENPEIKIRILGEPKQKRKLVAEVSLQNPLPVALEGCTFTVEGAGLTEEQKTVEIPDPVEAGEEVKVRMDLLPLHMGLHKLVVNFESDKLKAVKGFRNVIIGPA
The experiment in a line: Transglutaminase assay (DCC-assay): incorporation of dansylcadaverine into dimethylcasein. Format: biochemical. The following applies: recombinant human TG2 10 nM; dansylcadaverine incorporation into dimethylcasein; read-out: IC50 TG2. Summed up:
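IC50 is the inhibitor level that blocks 50% of initial activity. Activity is the fluorescence slope (λex 330, λem 500 nm) between 20 and 30 min of a 37 °C run, relative to a 2% DMSO control. The enzyme is recombinant human tissue transglutaminase, 10 nM final, tested against a 1:2 inhibitor dilution series in a pH 8.0 mix with 10 mM CaCl2, 10 mM glutathione, 16.7 µM dansylcadaverine and 4 µM N,N-dimethylcasein.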

Data set [3] in a line: Caco-2 permeability assay (CacoReady kit). Format: in vitro ADME. The following applies: human, Caco-2, Caco-2 barrier, CacoReady kit; above 1×10^−6 cm/s classified as permeable. Summed up:
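Intestinal permeability modelled with kit-supplied Caco-2 barriers, run as the maker specifies; each compound reported as Papp.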
A general note: Caco-2 cells form a polarised layer with tight junctions and transporters.

The term logD denotes the decadic logarithm of the distribution of all forms, ionised or not, between an organic phase and buffer at a given pH. For orientation: IC50 means the concentration at which inhibition is half-maximal. Broadly, the Papp is a coefficient for how fast a substance crosses the barrier. Read a low Papp as slow passage.

Compound `CNC(=O)C(=O)CC[C@H](NC(=O)[C@@H]1CCCCN1)C(=O)Nc1cccn(CC(=O)NC2C3CC4CC(C3)CC2C4)c1=O` (stereo partly drawn) [II-58, (S)-N1-(1-(2-(2-adamantylamino)-2-oxoethyl)-2-oxo-1,2-dihydropyridin-3-yl)-N6-methyl-5-oxo-2-((S)-piperidine-2-carboxamido)hexanediamide] returned a logD in data set [1] of 1 to 3. For the same compound, in data set [2], the IC50 is 40 to 400 nM. The compound further had a Papp in data set [3] of under 1 ×10⁻⁶ cm/s.

`CNC(=O)C(=O)CC[C@H](NC(=O)[C@@H]1CCCNC1)C(=O)Nc1cccn(CC(=O)NC2C3CC4CC(C3)CC2C4)c1=O` (stereo partly drawn) [II-59, (S)-N1-(1-(2-(2-adamantylamino)-2-oxoethyl)-2-oxo-1,2-dihydropyridin-3-yl)-N6-methyl-5-oxo-2-((R)-piperidine-3-carboxamido)hexanediamide]: in data set [1], the logD was 1 to 3. Besides, the IC50 in data set [2] fell in the range of 40 to 400 nM. In data set [3], this compound came in with a Papp of under 1 ×10⁻⁶ cm/s.

As to `CNC(=O)C(=O)CC[C@H](NC(=O)[C@H]1COCCN1)C(=O)Nc1cccn(CC(=O)NC2C3CC4CC(C3)CC2C4)c1=O` (stereo partly drawn) [II-60, (S)-N1-(1-(2-(2-adamantylamino)-2-oxoethyl)-2-oxo-1,2-dihydropyridin-3-yl)-N6-methyl-2-((R)-morpholine-3-carboxamido)-5-oxohexanediamide], the logD in data set [1] was under 1. In addition, the IC50 in data set [2] was in the range of 40 to 400 nM. This compound showed a Papp in data set [3] of under 1 ×10⁻⁶ cm/s.

In turn, `CNC(=O)C(=O)CC[C@H](NC(=O)C1CN2CCC1CC2)C(=O)Nc1cccn(CC(=O)NC2C3CC4CC(C3)CC2C4)c1=O` (stereo partly drawn) [II-61, (S)-N1-(1-(2-(2-adamantylamino)-2-oxoethyl)-2-oxo-1,2-dihydropyridin-3-yl)-N6-methyl-5-oxo-2-(quinuclidine-3-carboxamido)hexanediamide] gave a logD in data set [1] of 1 to 3. Also, the IC50 in data set [2] was in the range of 40 to 400 nM. Further, the Papp in data set [3] was under 1 ×10⁻⁶ cm/s.

In the case of `CNC(=O)C(=O)CC[C@H](NC(=O)c1cc(C(=O)OC)cc([N+](=O)[O-])c1)C(=O)Nc1cccn(CC(=O)NC2C3CC4CC(C3)CC2C4)c1=O` (stereo partly drawn) [II-62, (S)-methyl 3-(1-(1-(2-(2-adamantylamino)-2-oxoethyl)-2-oxo-1,2-dihydropyridin-3-ylamino)-6-(methylamino)-1,5,6-trioxohexan-2-ylcarbamoyl)-5-nitrobenzoate], the pH-dependent lipophilicity (logD) in data set [1] lay within 1 to 3. In addition, in data set [2], the half-inhibitory concentration (IC50) is under 40 nM. The same compound gave a Papp in data set [3] of 1 to 10 ×10⁻⁶ cm/s.

Compound `CNC(=O)C(=O)CC[C@H](NC(=O)c1cncc([N+](=O)[O-])c1)C(=O)Nc1cccn(CC(=O)NC2C3CC4CC(C3)CC2C4)c1=O` (stereo partly drawn) [II-63, (S)-N1-(1-(2-(2-adamantylamino)-2-oxoethyl)-2-oxo-1,2-dihydropyridin-3-yl)-N6-methyl-2-(5-nitronicotinamido)-5-oxohexanediamide] gave a logD in data set [1] of 1 to 3. Also, the IC50 in data set [2] was under 40 nM. The compound also came in with a Papp in data set [3] of under 1 ×10⁻⁶ cm/s.

`CNC(=O)C(=O)CC[C@H](NC(=O)c1cncc(C(=O)O)c1)C(=O)Nc1cccn(CC(=O)NC2C3CC4CC(C3)CC2C4)c1=O` (stereo partly drawn) [II-64, (S)-5-(1-(1-(2-(2-adamantylamino)-2-oxoethyl)-2-oxo-1,2-dihydropyridin-3-ylamino)-6-(methylamino)-1,5,6-trioxohexan-2-ylcarbamoyl)nicotinic acid] yielded a logD in data set [1] of 1 to 3. Further, the IC50 in data set [2] was in the range of 40 to 400 nM. For the same compound, the apparent permeability (Papp) in data set [3] was under 1 ×10⁻⁶ cm/s.

Take `CNC(=O)C(=O)CC[C@H](NC(=O)c1cncc(C(=O)OC)c1)C(=O)Nc1cccn(CC(=O)NC2C3CC4CC(C3)CC2C4)c1=O` (stereo partly drawn) [II-65, (S)-methyl 5-(1-(1-(2-(2-adamantylamino)-2-oxoethyl)-2-oxo-1,2-dihydropyridin-3-ylamino)-6-(methylamino)-1,5,6-trioxohexan-2-ylcarbamoyl)nicotinate]: the logD in data set [1] fell in the range of 1 to 3. Moreover, the IC50 in data set [2] was in the range of 40 to 400 nM. This compound registered a Papp in data set [3] of under 1 ×10⁻⁶ cm/s.

The record behind these values is patent US20240383856A1 (Zedira GmbH, priority 2021, published 2024).
